Test results reported in patent US20260077065A1, “Compositions and Methods for Assessing Kinase Activity” (The Board of Trustees of the Leland Stanford Junior …, priority 2022, published 2026).

Legend:
[1] = previously characterized; cited from earlier work
ERK [2] = experiment: Imaging of ERK inhibition in intracranially implanted U87-EGFRvIII cells; format: in vivo, mice
Experimental: Tested next was whether KiMBI can report ERK inhibition in the brain tumor xenograft model.
U87-EGFRvIII xenografts are known to disrupt the BBB^16. When the BBB-impermeant GSK1120212 (1 mg/kg i.p.) was administered to the same group of mice, a positive response was also observed, with ˜150% higher tKiMBI signal.
(§1) General procedures of kinase inhibitor injection and in vivo bioluminescence imaging. […] For KiMBI (NanoLuc-based bioluminescent reporter) imaging, mice were i.p. injected with either 1.3 μmol (0.56 mg) of fluorofurimazine (FFz) or cephalofurimazine (CFz) in 150 μl of injectable formulation containing 6 mg poloxamer-407 (P-407) in Dulbecco Phosphate Buffered Saline (DPBS, without Ca^2+ or Mg^2+, no. 21-031-CV, Corning) for imaging. Immediately after luciferin administration, mice were anesthetized using isoflurane, and images were acquired in the Ami HT optical imaging system every 1 min for 10 min, with an air flow containing 1-2% isoflurane for stable anesthesia. Imager settings were: emission filter, open; field of view, 25 cm; f-stop 1.2; binning, 2×2 and exposure time, 30 s. Images were analyzed in Aura 4.0 in vivo imaging software. The above-mentioned conditions and settings were for most in vivo studies unless otherwise stated in the specific procedures.
Molecular imaging of ERK inhibition in intracranially implanted cells. The stereotaxic injection on the 7- to 9-week-old male J:NU mice were similar to the afore-mentioned AAV infection surgery. A Hamilton syringe with a 26-gauge needle was inserted 0.62 mm […] and 1.75 mm lateral to the bregma to a depth of 3.5 mm, and after a 2 min wait the needle was pulled back 0.5 mm to allow space for the cell suspension. Following this, 3×10^4 KiMBI-expressing U87-EGFRvIII or LN-229 stable cells in 1.5 μl of PBS were injected at an injection speed of 0.3 μL/min using the syringe pump. To visualize ERK inhibition in U87-EGFRvIII cell implants, 5 days after cell implantation, tumor-bearing mice were i.p. injected with CFz (0.4 μmol, with 1.8 mg P-407) for imaging. […]

ERK [3] = experiment: U87-EGFRvIII stable tKiMBI/tKiMBImut reporter cell lines, bioluminescence; format: cell-based, human; conditions: for induction of bioluminescence: tKiMBI-expressing cells; for effect on bioluminescence of control cell lines: tKiMBImut-expressing cells
Experimental: Next, the ability of KiMBIs to report ERK kinase inhibition in human tumor xenografts in mice was tested. U87-EGFRvIII cells were transduced with lentiviruses expressing tKiMBI-T2A-AkaLuc, where AkaLuc allows kinase-independent tracking of tumor location and size (FIG. 6a). Transduced cells were sorted by fluorescence-activated cell sorting (FACS) and selected by antibiotics to generate polyclonal stable cell lines.
Generation of KiMBI-expressing stable tumor cell lines. U87-EGFRvIII and LN229 cells were lentiviral transduced with pLL3.7m-CMV-KiMBI-T2A-AkaLuc-P2A-Blasticidin. Then, 72 h after transfection, cells were dissociated with trypsin and resuspended in DMEM and then changed to PBS. Suspended cells were sorted for the population with medium fluorescence level (20-40%) on a fluorescence-activated cell sorter (FACS), the FACSJazz (BD Biosciences) at Stanford Shared FACS Facility. After cell sorting, the KiMBI-expressing cells were maintained and passaged in corresponding culture medium supplemented with blasticidin (6 μg/mL for both cell lines) to select for stable polyclonal cell lines. Flow cytometry data were analyzed on FlowJo software. The stable KiMBI expression was validated by examination of tdTomato fluorescence in tKiMBI (and its variants) using an EVOS FL Autoimaging system (Thermo Scientific).
(§2) In vitro cell-based bioluminescent assay. Cells were seeded into 96-well Lumitrac plate (Greiner Bio-One) at a density of 1.5-2×10^4 cells per well. After 24 h, cells were transiently transfected with KiMBI-expressing plasmids (5-10 ng per well) with or without caMEK-expressing plasmids (50 ng per well, empty pcDNA3.1 as negative control to keep total transfected DNA amount consistent) using lipofectamine 3000 (Invitrogen) following manufacturer's instructions. For the stable polyclonal KiMBI-expressing cell liens, this lipofection step was skipped. At 24 h after transfection, the cells were treated with drugs at desired concentration in opti-MEM reduced-serum medium (Thermo Fisher) for 1-1.5 hours. Then, for assaying luminescence, Nano-Glo live cell assay system (Promega) was used following manufacturer's instructions. Time-lapse live luminescence was recorded on Safire-2 microplate reader (Tecan) with 100 ms integration and one read per min for 20 min. Luminescence spectrum was measured on a Varioskan LUX multimode microplate reader (Thermo Scientific) using the spectral scanning protocol with 1 s integration for each wavelength at 400-680 nm (1 nm per data point).

ERK [4] = conditions: mouse, in vivo; cited from earlier work
Akt [5] = experiment: Molecular imaging of Akt inhibition in subcutaneous U87-EGFRvIII tumor model; format: in vivo; conditions: same mice after 2-day interval
Excerpt: Evaluated next was the capacity of Akt oKiMBI to report Akt inhibition in a subcutaneous tumor model. Engineered U87-EGFRvIII cells that stably express oKiMBI or oKiMBImut were subcutaneously injected at different sites in J:NU mice.

Akt [6] = experiment: Akt oKiMBI luminescence in HEK293A (caAkt), U87-EGFRvIII and LNCaP cells; format: cell-based, human; conditions: all cell lines: HEK293A (caAkt), U87-EGFRvIII, LNCaP
Akt [7] = experiment: U87-EGFRvIII cells stably expressing Akt oKiMBI or oKiMBImut, luminescence; format: cell-based, human
Excerpt: To assess Akt inhibition in human tumor xenografts in mice, either Akt oKiMBI- or oKiMBImut-expressing U87-EGFRvIII stable cell lines were first engineered through lentiviral transduction (FIG. 17a). Fluorescence-activated cell sorting (FACS) was subsequently employed to sort the transduced cells, followed by antibiotics selection to establish polyclonal stable cell lines.

Akt [8] = experiment: BAR (bioluminescent Akt reporter, FLuc) luminescence in HEK293A (caAkt), U87-EGFRvIII and LNCaP cells; format: cell-based, human; conditions: all tested cell lines
ERK [9] = experiment: ERK KiMBI cell-based bioluminescent assay, HEK293A cells co-transfected with caMEK
Excerpt: To develop a luciferase reporter protein whose activity can be activated by ERK inhibition, it was hypothesized that NanoLuc luciferase catalytic activity could be modulated through large ERK-induced conformational changes. Created and tested were fusion proteins of various topologies (FIG. 2a) comprising the NanoLuc NanoBiT fragments, an ERK substrate peptide from Cdc25C^7, and a proline-directed WW phospho-binding domain (WW)^8 from Pin1. In particular, an arrangement was postulated in which binding of phosphorylated substrate (pSub) to WW would force the SmBiT fragment to adopt an unfavorable conformation for LgBiT complementation, would show low luminescence with active ERK and high luminescence with inhibited ERK (FIG. 2b). The KiMBI candidates were screened by co-transfection into HEK293A cells with a constitutively active MEK (caMEK) followed by application of the ERK inhibitor Vx-Ile.
as §2

ERK [10] = experiment: Molecular imaging of ERK inhibition in subcutaneous U87-EGFRvIII tumor model; format: in vivo, mice; conditions: 2 h after injection, FFz imaging
Experimental: The ability of tKiMBI to report ERK pathway inhibition in tumors in vivo was assessed. Mice were injected subcutaneously with 10^6 tKiMBI-expressing cells on one side and, to control for differences in substrate delivery between injections, tKiMBImut-expressing reporter cells on the other side (FIG. 7a).
Molecular imaging of ERK inhibition in subcutaneously implanted cells. […]

ERK [11] = experiment: Time-lapse imaging of ERK inhibition in intracranially implanted U87-EGFRvIII cells; format: in vivo, mice
Experimental: A non-invasive method with the potential for longitudinal studying of drug pharmacokinetics and pharmacodynamics should allow rapid dose and schedule optimization for drug development.
as §1
Time-lapse imaging of ERK inhibition in intracranially implanted cells. One week after implantation of 10^5 KiMBI-expressing U87-EGFRvIII stable cells, the tumor-bearing mice were i.p. injected with CFz (0.2 μmol, with 0.8 mg P-407) for the initial imaging to establish the signal baseline before drug administration.

ERK [12] = experiment: Molecular imaging of ERK inhibition in KiMBI-encoded AAV infected mouse brain; format: in vivo
Experimental: Using CFz, tested was whether tKiMBI could report the BBB-permeance of ERK pathway inhibitors in living mice. tKiMBI-T2A-caMEK or the negative control tKiMBImut-T2A-caMEK were expressed in mouse striatum by AAV transduction (FIG. 9a).
as §1
Molecular imaging of ERK inhibition in KIMBI-encoded AAV infected mouse brain. […]

ERK [13] = experiment: Imaging of ERK inhibition in intracranially implanted LN-229 cells; format: in vivo, mice; conditions: one week after implantation
Experimental: 3×10^4 LN-229 cells expressing tKiMBI or tKiMBImut were implanted into the striatum, and KiMBI assays were performed one week later.
Molecular imaging of ERK inhibition in intracranially implanted cells. The stereotaxic injection on the 7- to 9-week-old male J:NU mice were similar to the afore-mentioned AAV infection surgery. A Hamilton syringe with a 26-gauge needle was inserted 0.62 mm dorsal and 1.75 mm lateral to the bregma to a depth of 3.5 mm, and after a 2 min wait the needle was pulled back 0.5 mm to allow space for the cell suspension. […]

CC(=O)Nc1cccc(-n2c(=O)n(C3CC3)c(=O)c3c(Nc4ccc(I)cc4F)n(C)c(=O)c(C)c32)c1 [GSK1120212, trametinib]
BBB permeation [1]: poor BBB permeation
higher tKiMBI signal (ERK [2]; 1 mg/kg i.p., same group of mice): ~150%
induction of bioluminescence (ERK [3]): ~4 fold
drug level and ERK inhibition in brains of drug-injected mice (ERK [4]): no detectable GSK1120212 or ERK inhibition

NC(=O)c1cccc2c(N[C@H](CN3CCC3)c3ccc(Cl)c(C(F)(F)F)c3)ncnc12 [M2698]
inhibition of the Akt pathway reported by Akt oKiMBI (Akt [5]): effective inhibition of the Akt pathway
oKiMBI luminescence response to Akt inhibitor (Akt [6]): significant increase in luminescence
signal response of oKiMBImut cells to drug treatment (Akt [7]; cells expressing oKiMBImut): did not exhibit any signal increase
increase in luminescent signals (Akt [7]; cells stably expressing Akt oKiMBI): ~2.5 fold
BAR and BARmut response to Akt inhibitor (Akt [8]): miniscule positive responses

O=C(NOC[C@H](O)CO)c1ccc(F)c(F)c1Nc1ccc(I)cc1F [PD0325901, mirdametinib]
induction of tKiMBI signal (ERK [9]; AAV plasmids caMEK-T2A-tKiMBI (A1) and tKiMBI-T2A-caMEK (A2), both): approximately 4 fold
BBB permeation [1]: BBB-permeant
increase in brightness of tKiMBI tumor (ERK [10]; tKiMBI): 100%
increase in brightness of tKiMBImut tumor (ERK [10]; tKiMBImut control): ~10%
increase in tKiMBI signal (ERK [2]; after PD0325901 administration, CFz): ~200%
decrease in tKiMBImut signal (ERK [2]; after PD0325901 administration, control reporter): ~10%
return of signal to baseline (ERK [11]; 25 mg/kg i.p., tKiMBI): backed to baseline on the second day
time for bioluminescence signal to rise to plateau (ERK [11]; 25 mg/kg i.p., tKiMBI): ≤ 1 h
time post-treatment at which signal declined to about half (ERK [11]; 25 mg/kg i.p., tKiMBI): around 8 hrs
time until which signal remained high (ERK [11]; 25 mg/kg i.p., tKiMBI): about 4 h
signal increase in control cells (ERK [11]; after 24 h, tKiMBImut control cells): ~1.4 fold
induction of bioluminescence (ERK [3]): ~4 fold
effect on bioluminescence of control cell lines (ERK [3]): slightly reduced bioluminescence
bioluminescence of tKiMBI in brain (ERK [12]; 25 mg/kg, CFz imaging, tKiMBI-T2A-caMEK): robustly induced bioluminescence
able to induce a signal increase in KiMBI (ERK [12]; AAV-infected mice brain (discussion)): able to induce a signal increase
increase in signal from tKiMBI (ERK [13]): > 3 fold

O=C(Nc1ccc2[nH]nc(-c3ccncc3)c2c1)[C@@H]1CCN(CC(=O)N2CCN(c3ccc(-c4ncccn4)cc3)CC2)C1 [SCH772984]
induction of bioluminescence (ERK [3]): ~4 fold
effect on bioluminescence of control cell lines (ERK [3]): slightly reduced bioluminescence

Cc1cnc(Nc2ccc(F)cc2Cl)nc1-c1c[nH]c(C(=O)N[C@H](CO)c2cccc(Cl)c2)c1 [Vx-11e]
increase in luminescence (ERK [9]; 03 topology KiMBI candidate, 1 μM Vx-11e): ~65%
induction of bKiMBI luminescence by inhibitor (ERK [9]; ERK blue KiMBI (WW F25A)): > 10 fold
